For experiment [1], the target named is PhnO enzyme (Escherichia coli, UniProt P16691, P2A).
Procedure: The apparent Km of PhnO for the substrate acetyl-CoA was determined in similar experiments. After several attempts to obtain end point kinetics, it was determined that the turnover number was too low to be reliable at AMPA concentrations of about 30 mM and enzyme amounts of about 1-10 ng. An alternative approach was tried using tritium labeled acetyl-CoA. The specific activity of the label was about 40× higher than with [^14C], providing a gain in sensitivity that allowed for the determination of the apparent Km of PhnO for Acetyl-CoA. The [^3H]-acetyl-CoA (Amersham, Inc.) specific activity was 360 mCi/mg or 250 μCi/ml. […] This was accomplished by adjusting the concentration of KH2PO4 buffer (pH 5.5) to 40 mM with a flow rate of 1 ml per minute over an AX100 weak anion exchange column. Each sample was reacted with PhnO and 30 mM AMPA for five minutes at 37° C. and quenched with 100 mM NaOAc pH 4.4 in ethanol, then analyzed by HPLC. [^3H]-acetyl-CoA substrate ranged from 25 micromolar to 1.3 mM in each reaction along with about 5 ng PhnO, 50 mM Tris pH 7.5, 1 mM MnCl2, 1 mM MgCl2, and 30 mM AMPA. Samples were analyzed by HPLC to determine the amounts of N-[^3H]-acetyl-AMPA produced, and [^3H]-acetyl-CoA remaining.
Experiment [2] has as its target T1, purified PhnO protein (Escherichia coli, UniProt P16691, P2A).
T1 construct: made in house; host or cells: E. coli JM101 carrying pMON15032 (recA promoter, nalidixic acid induction)
Briefly: AMPA transacylase acyl-CoA acyl donor specificity, HPLC. The class given is biochemical, E. coli. The following applies: for [^14C]-AMPA % Conversion: 5 minutes 30° C.; for % Activity: 1 mM acetyl-CoA = 100% reference. The method, then:
PhnO was purified from a one liter Luria Bertani broth culture of E. coli JM101 expressing a recombinant phnO gene from pMON15032 after nalidixic acid induction for three hours at 37° C. Cells were harvested by centrifugation and resuspended in 40 ml cold Tris buffer (0.1 M Tris-HCl pH 8) and placed on ice. The cell suspension was brought to 1 mM DTT and 0.5 mM PMSF. The suspension was lysed by 2 passages through a prechilled French pressure cell at 1,100 psi, centrifuged at 12,000 g (10,000 rpm in an Sorvall SA600 rotor) for 40 min at 4° C., then placed on ice. The cleared supernatants were poured into fresh 15 ml polypropylene tubes. The samples were split again into two equal portions and maintained at −80° C. until used further for purification of PhnO protein. 20 microliters of the soluble fraction was assayed for enzyme activity using the HPLC method described above in Example 2, except after terminating the assay with acid addition, the sample was stored at −80° C. A Sephacryl S200 column was prepared according to the manufacturers' instructions and equilibrated with a solution containing 20 mM Tris pH 8.0 and 0.5 mM MgCl2. The entire total soluble extract was layered over the top of the column bed after thawing on ice. Forty 9 ml fractions were collected from the column eluate, and thirty microliters of each fraction was analyzed by western blot using anti-PhnO antiserum after resolution on a 15% SDS-PAGE gel. Also, thirty microliters of each fraction was analyzed for AMPA acyl transferase activity using the method described in Example 2. […] These were represented by fractions 7 through 19 in this example, and were combined into a 100 ml volume, distributed into […] each containing 10 ml volumes, and stored at −80° C. for further use.
Anion exchange chromatography was used to determine the elution pattern of PhnO away from other contaminating proteins that co-elute during the Sephacryl S200 fractionation. One tube from the combined PhnO positive fractions was thawed on ice and injected into a 5/5 Mono-Q column pre-equilibrated with buffers A (one liter of 20 mM Tris-HCl pH 8.0 Mili-Q distilled deionized water) and B (one liter of 20 mM Tris-HCl pH 8.0, 1 M NaCl). The sample containing PhnO active protein was injected into the column and one milliliter fractions were collected. The column was washed for five minutes with a flow rate of 1.8 ml per minute Buffer A after loading the PhnO containing sample. At five minutes, Buffer B was added to the flow volume at 0.5 ml per minute for four minutes. Buffer B was ramped up to 22% of the flow volume at 10 minutes, 30% at 12 minutes, 36% at 13 minutes, 41% at 14 minutes, 46% at 15 minutes, 74% at 16 minutes, and 100% at 16 minutes through 22 minutes, at which point Buffer B flow was terminated and Buffer A was reinitiated at 100% to equilibrate the column. Ten microliter volumes from individual fractions collected from the Mono-Q column were analyzed by western blot and for transacylase activity as described in Example 2. […] Samples of this purified PhnO protein were used to determine enzyme's acyl donor substrate specificity.
Enzyme reactions were prepared as follows. […] A assay premix was prepared from which 45 microliters was used in each 100 microliter reaction. This 45 microliter premix sample consisted of 40 microliters distilled and deionized water, 2 microliters of 50 mM MgCl2, and 3 microliters of 1.3 mM [^14C]-AMPA (115,392 dpm per microliter). Reactions were initiated by mixing 40 microliters of 125 mM Tris-HCl pH 8.0, […] protein sample and 10 microliters acyl-CoA acyl donor compound in a microcentrifuge tube at room temperature. Each acyl-CoA acyl donor compound was prepared as a stock solution of 1 mM, 5 mM or 10 mM stocks. Each tube was then mixed with 45 microliters of the assay premix containing the [^14C]-AMPA […] substrate, mixed gently and transferred to a 30° C. water bath for 5 minutes. […]

The subject of experiment [3] is Wheat immature embryos. Briefly: Wheat embryo germination assay. The class given is in vivo. The following applies: for Germinating root length / Germinating shoot length: ten days. The method, then:
Wheat immature embryos were exposed to different concentrations of AMPA and N-acetyl-AMPA in a wheat embryo germination assay. MMSO base media was prepared containing 40 grams per liter maltose, 2 grams per liter GELRITE™, MS salts, and vitamins. Salts, vitamins, and maltose were dissolved in 3500 ml water and the pH was adjusted to 5.8. 500 ml was dispensed into a separate bottle along with 1 gram of GELRITE™ and autoclaved for 17 minutes. After the medium had cooled to about 45° C., AMPA or N-acetyl-AMPA was added to a defined concentration. The mixture was poured into six square Sundae cups under sterile conditions and allowed to solidify.
Immature wheat embryos were isolated from twenty day old seedlings (after anther formation) and inoculated into each MMSO media. Each Sundae cup contained nine immature embryo's. Three separate plates were used for each concentration of AMPA (0, 0.1, 0.15, 0.2, 0.25, 0.3, and 1.0 mM) or N-acetyl-AMPA (0, 0.1, 0.3, 1.0, and 3.0 mM). Sundae cups were incubated for ten days and the length of roots and shoots were determined and compared.

Experiment [4] concerns Tobacco callus. Description: Tobacco callus growth on plates with AMPA or N-acetyl AMPA. The class given is cell-based, Nicotiana tabacum cv. "Samsun". To be noted: plates with 0.1 mM or 0.4 mM, up to three weeks. The method, then:
Tobacco callus was generated from leaf pieces of wild type Nicotiana tabacum cv. “Samsun” tobacco on MS104 plates (MS salts 4.3 g/l, sucrose 30 g/l, B5 vitamins 500X 2 ml/l, NAA 0.1 mg/l, and Bacto Agar […]). Callus tissue was applied to plates with or without AMPA and with or without N-acetyl AMPA. Plates contained AMPA or N-acetyl AMPA at concentrations of 0.1 mM or 0.4 mM. Plates were incubated for up to three weeks and monitored periodically.

Experiment [5] concerns AMPA acyltransferase activity. Briefly: AMPA acyltransferase HPLC assay of bacterial lysates. The class given is biochemical. The following applies: lysates of induced E. coli JM101 transformants.
Where [6] appears, read: any concentration tested (0.1-3.0 mM).

Consider 3 molecules from patent publication US7554012B2, “Plants and plant cells exhibiting resistance to AMPA, and methods for making the same” (priority 1998, dated 2009).

Read-outs that look alike come from different tables or passages of the source.

The term Km denotes the concentration of substrate that gives half-maximal velocity. Consider `CC(=O)SCCNC(=O)CCNC(=O)[C@H](O)C(C)(C)COP(=O)(O)OP(=O)(O)OC[C@H]1O[C@@H](n2cnc3c(N)ncnc32)[C@H](O)[C@@H]1OP(=O)(O)O` [Acetyl-CoA], for which the Velocity was 34 in experiment [1] ([Acetyl-CoA] 25 micromolar, 30 mM AMPA); 66 in experiment [1] ([Acetyl-CoA] 50 micromolar); 94 in experiment [1] ([Acetyl-CoA] 75 micromolar); 125 in experiment [1] ([Acetyl-CoA] 100 micromolar); 150 in experiment [1] ([Acetyl-CoA] 125 micromolar); 173 in experiment [1] ([Acetyl-CoA] 150 micromolar). The Velocity in experiment [1] ([Acetyl-CoA] 175 micromolar) was 193; in experiment [1] ([Acetyl-CoA] 200 micromolar) it was 219; in experiment [1] ([Acetyl-CoA] 225 micromolar), 240; in experiment [1] ([Acetyl-CoA] 250 micromolar) it was 259; in experiment [1] ([Acetyl-CoA] 375 micromolar), 339; in experiment [1] ([Acetyl-CoA] 390 micromolar), 287. The Velocity is listed as 331 in experiment [1] ([Acetyl-CoA] 520 micromolar); 352 in experiment [1] ([Acetyl-CoA] 650 micromolar); 372 in experiment [1] ([Acetyl-CoA] 780 micromolar); 397 in experiment [1] ([Acetyl-CoA] 910 micromolar); 411 in experiment [1] ([Acetyl-CoA] 1040 micromolar); 425 in experiment [1] ([Acetyl-CoA] 1170 micromolar). In experiment [1] ([Acetyl-CoA] 1300 micromolar), this molecule displayed a Velocity of 434. The “apparent Vmax” value in experiment [1] (acetyl-CoA substrate, Lineweaver-Burk plot) is “about 824 U/mg protein”. The Michaelis constant (Km) in experiment [1] (read-out: apparent Km of PhnO for acetyl-CoA as a substrate, 30 mM AMPA, Lineweaver-Burk plot of Table 9 data) was 375 to 390 µM. Besides, the “[^14C]-AMPA % Conversion” value is on record as 79.2% in experiment [2] (acyl donor 0.1 mM), 98.7% in experiment [2] (acyl donor 0.5 mM) and 100.00% in experiment [2] (acyl donor 1 mM). Besides, the “% Activity” value in experiment [2] (acyl donor 0.1 mM) is given as 79.2%; in experiment [2] (acyl donor 0.5 mM) it was 98.7%; in experiment [2] (acyl donor 1 mM), 100.00%.
In the case of “N-acetyl-amino-methyl-phosphonate [N-acetyl AMPA]”, the Germinating root length in experiment [3] (0.10 mM) is 5.9 ± 1.4 cm; in experiment [3] (0.30 mM), 5.2 ± 1.2 cm; in experiment [3] (1.00 mM), 5.4 ± 1.5 cm; in experiment [3] (3.00 mM), 5.9 ± 1.6 cm. The Germinating shoot length in experiment [3] (0.10 mM) was 12.0 ± 2.4 cm; in experiment [3] (0.30 mM), 11.7 ± 3.5 cm; in experiment [3] (1.00 mM), 12.2 ± 3.2 cm; in experiment [3] (3.00 mM), 11.2 ± 2.6 cm. In addition, in experiment [3] (setting [6]), the “inhibition of root elongation” value is given as “only mildly inhibitory”. The inhibition of shoots entry in experiment [3] (setting [6]) was “not inhibitory”. Further, the “concentration with no significant effects to immature embryo germination” value in experiment [3] (in vivo) is reported as “less than 3.0 mM”. Besides, the “growth of tobacco callus tissue” value in experiment [4] is given as “not inhibited”.

B1: CTP-PhnO peptide: chloroplast transit peptide fused to PhnO (SEQ ID NO:12) (protein)
chain: MASSMLSSATMVASPAQATMVAPFNGLKSSAAFPATRKANNDITSITSNGGRVNCMQVWPPIGKKKFETLSYLPDLTDSGGRVNCMQAMAACELRPATQYDTDAVYALICELKQAEFDHHAFRVGFNANLRDPNMRYHLALLDGEVVGMIGLHLQFHLHHVNWIGEIQELVVMPQARGLNVGSKLLAWAEEEARQAGAEMTELSTNVKRHDAHRFYLREGYEQSHFRFTKAL
As for B1, the “AMPA acyltransferase activity of cell lysates” value in experiment [5] is given as “retain full enzymatic acyltransferase activity”.
